Measured values: patent US11205502B2, “Processing method and processing apparatus for efficacy of combined drug” (Institute of radiation medicine, academy of military …, priority 2015, dated 2021)

Columns and labels:
[1] = test system: human hepatocellular carcinoma cell HepG2; assay: MTT method, growth inhibition of HepG2 by NX, TX and NX/TX combined application; expected additive effect by equivalent dose conversion; type: cell-based; settings: for Efficacy of NX: from fitted single-use equation
Source text: Title: the nitrohydroxyl compound (NX) is an anti-infectious drug. […] Taxol (TX) is an anticancer drug frequently used in clinic. In an NX/TX combined application, the growth of a human hepatocellular carcinoma cell HepG2 is inhibited in an MTT method. A method for quantitatively processing relevant indexes of synergistic/additive/antagonistic effect is described, which provides a reference for research and development of a novel anticancer compound.
Step 1: a dose-effect relationship table of dose levels of each single drug and each member in a combined group is prepared, and a respective dose-effect relationship curve equation is fitted. For dose-effect relationship data among the NX, the TX and the single drug, the NX+TX at a fixed proportion in combined use (1/1, μg/ml+ng/ml), and dose-effect relationship data of the TX at a fixed concentration (2 ng/ml)+the NX at different concentrations in the combined use, see a table 1.
Step 2: the dose is converted sequentially, and each line of the dose-effect relationship data formed into an expected additive efficacy curve band under a combined condition is calculated.
Descriptions on numerical calculation in each column of the table 2: (3) column: data in (2) column are calculated with the formula (2); (4) column: data in (3) column are calculated with the formula (1); (5) column: (1) column+(4) column; (6) column: data in (5) column are calculated with the formula (1).
Descriptions on numerical calculation in each column: (7) column: data in (1) column are calculated with the formula (1); (8) column: data in (7) column are calculated with the formula (2); (9) column: (2) column+(8) column; (10) column: data in (9) column are calculated with the formula (2); “-” indicates to be beyond the dose-effect range of the TX.
Descriptions on numerical calculation in each column: (3) column: from the table 2; (4) column: from the table 3; (5) column: from the table 1; (6) column: (5) column data/(3) column data; (7) column: (5) column data/(4) column data; (8) column: standards are referred to the previous CId calculation.

[2] = test system: human lung cancer cell H460 lines; assay: MTT method, inhibition of growth of H460 by etoposide, vincristine, 5-fluorouracil, adriamycin and three-drug combinations; expected additive effect by equivalent dose conversion; type: cell-based; settings: for Efficacy of B: from fitted single-use equation
Source text: Title: there are many application schemes for a chemotherapeutic drug in lung cancer treatment. The chemotherapeutic drug in these schemes mainly includes the followings that belong to a topoisomerase inhibitor, a microtubule inhibitor, a metabolic inhibitor and an alkylating agent from types. One representative drug is successively selected from the four types of the drugs and respectively is etoposide (A), vincristine (B), 5-fluorouracil (C) and adriamycin (D). For any three combined application schemes, the inhibition effect to growth of human lung cancer cell H460 lines is detected with an MTT method. The three schemes successively are combinations of four combined drugs of A+B+C, A+B+D, A+C+D and B+C+D and the synergistic, additive and antagonistic effects are evaluated quantitatively. A:B:C=12.5:2:45 (μg/ml+μg/ml+μg/ml) A+B+C combination: A:B:D=12.5:2:4 (μg/ml+μg/ml+μg/ml) A+B+D combination: A:C:D=12.5:45:4 (μg/ml+μg/ml+μg/ml) A+C+D combination: B:C:D=2:45:4 (μg/ml+μg/ml+μg/ml) B+C+D combination:
For the etoposide (A), vincristine (B) and 5-fluorouracil (C), dose-effect relationship data of single drugs and dose-effect relationship data in the combined use A:B:C=12.5:2:45 (μg/ml+μg/ml+μg/ml), see a table 9 and a table 10.
Step 2, the dose is converted sequentially, and each dose-effect relationship data formed into an expected additive efficacy curve band under a combined condition is calculated.
The equivalent dose conversion is performed on combinations of two drugs of A+B, A+C and B+C sequentially first and then the equivalent dose conversion is performed on (A+B)+C, (A+C)+B and (B+C)+A. An expression for an expected additive effect of the three drugs in the combined use is as follows.
Y(A+B+C)=[Y(A+B)C, Y(A+C)+B, Y(B+c)+A] Hi^Lo↓, wherein Hi^Lo↓ Indicates function values of units in a number set and should be arranged from low to high. The Y(A+B+C)=[Y(A+B)+C, Y(A+C)+B, Y(B+c)+A]

## O=[N+]([O-])c1ccc(O)c2ncccc12 [NX, nitrohydroxyl compound]
[1]; NX 0.5 μg/ml single use
  Inhibition rate: 5.5%
[1]; NX 0.5 μg/ml
  Efficacy of NX: 5.5596%
[1]; NX 0.6 μg/ml
  Efficacy of NX: 6.4726%
[1]; NX 0.7 μg/ml
  Efficacy of NX: 7.7324%
[1]; NX 0.8 μg/ml
  Efficacy of NX: 9.3724%
[1]; NX 0.9 μg/ml
  Efficacy of NX: 11.4093%
[1]; NX 1 μg/ml single use
  Inhibition rate: 14%
[1]; NX 1 μg/ml
  Efficacy of NX: 13.8409%
[1]; NX 1.2 μg/ml
  Efficacy of NX: 19.7842%
[1]; NX 1.4 μg/ml
  Efficacy of NX: 26.8326%
[1]; NX 1.6 μg/ml
  Efficacy of NX: 34.4514%
[1]; NX 1.8 μg/ml
  Efficacy of NX: 42.0953%
[1]; NX 2 μg/ml single use
  Inhibition rate: 49.2%
[1]; NX 2 μg/ml
  Efficacy of NX: 49.3297%
[1]; NX 2.4 μg/ml
  Efficacy of NX: 61.6284%
[1]; NX 2.8 μg/ml
  Efficacy of NX: 70.7302%
[1]; NX 3.2 μg/ml
  Efficacy of NX: 77.1469%
[1]; NX 3.6 μg/ml
  Efficacy of NX: 81.6125%
[1]; NX 4 μg/ml single use
  Inhibition rate: 84.9%
[1]; NX 4 μg/ml
  Efficacy of NX: 84.7367%
[1]; NX 5 μg/ml
  Efficacy of NX: 89.1832%
[1]; NX 6 μg/ml
  Efficacy of NX: 91.2729%
[1]; NX 7 μg/ml
  Efficacy of NX: 92.3603%
[1]; NX 8 μg/ml single use
  Inhibition rate: 92.9%
[1]; NX 8 μg/ml
  Efficacy of NX: 92.9754%
[1]; NX 10 μg/ml
  Efficacy of NX: 93.5845%
[1]; NX 12 μg/ml
  Efficacy of NX: 93.8519%
[1]; NX 14 μg/ml
  Efficacy of NX: 93.9866%
[1]; NX 16 μg/ml single use
  Inhibition rate: 94.1%
[1]; NX 16 μg/ml
  Efficacy of NX: 94.0615%
[1]; TX fixed dose 2 ng/ml
  NX dose limits of the additive effect: 2.1229−4.5777 μg/ml

## CC[C@]1(O)C[C@H]2CN(CCc3c([nH]c4ccccc34)[C@@](C(=O)OC)(c3cc4c(cc3OC)N(C=O)[C@H]3[C@@](O)(C(=O)OC)[C@H](OC(C)=O)[C@]5(CC)C=CCN6CC[C@]43[C@@H]65)C2)C1 [Vincristine (B), vincristine]
[2]; A:B:C=12.5:2:45 fixed proportion
  dose range of the additive effect, vincristine (B): 0.2925 to 0.8781 µg/mL
[2]; B 0.00000763 μg/ml
  Efficacy of B: 4.9016%
[2]; B 0.00003052 μg/ml
  Efficacy of B: 4.9048%
[2]; B 0.00012207 μg/ml
  Efficacy of B: 4.9268%
[2]; B 0.00048828 μg/ml
  Efficacy of B: 5.0764%
[2]; B 0.00195313 μg/ml
  Efficacy of B: 6.0768%
[2]; B 0.0078125 μg/ml
  Efficacy of B: 12.0757%
[2]; B 0.03125 μg/ml
  Efficacy of B: 33.3731%
[2]; B 0.125 μg/ml
  Efficacy of B: 55.3101%
[2]; B 0.5 μg/ml
  Efficacy of B: 61.7291%
[2]; B 2 μg/ml
  Efficacy of B: 62.8101%
[2]; Homo sapiens, NCI-H460, Vincristine (B) 0.000030518 μg/ml single use, read-out: Inhibition rate
  inhibition at 30.52 pg/mL: 2.75%
[2]; Homo sapiens, NCI-H460, Vincristine (B) 0.00012207 μg/ml single use, read-out: Inhibition rate
  inhibition at 0.00012207 µg/mL: -0.11%
[2]; Homo sapiens, NCI-H460, Vincristine (B) 0.000488281 μg/ml single use, read-out: Inhibition rate
  inhibition at 0.000488281 µg/mL: 13.2%
[2]; Homo sapiens, NCI-H460, Vincristine (B) 0.001953125 μg/ml single use, read-out: Inhibition rate
  inhibition at 0.00195312 µg/mL: 8.91%
[2]; Homo sapiens, NCI-H460, Vincristine (B) 0.0078125 μg/ml single use, read-out: Inhibition rate
  inhibition at 0.0078125 µg/mL: 6.25%
[2]; Homo sapiens, NCI-H460, Vincristine (B) 0.03125 μg/ml single use, read-out: Inhibition rate
  inhibition at 0.03125 µg/mL: 37%
[2]; Homo sapiens, NCI-H460, Vincristine (B) 0.125 μg/ml single use, read-out: Inhibition rate
  inhibition at 0.125 µg/mL: 53.2%
[2]; Homo sapiens, NCI-H460, Vincristine (B) 0.5 μg/ml single use, read-out: Inhibition rate
  inhibition at 0.5 µg/mL: 55.9%
[2]; Homo sapiens, NCI-H460, Vincristine (B) 2 μg/ml single use, read-out: Inhibition rate
  inhibition at 2 µg/mL: 65.8%
[2]; Homo sapiens, NCI-H460, Vincristine (B) 8 μg/ml single use, read-out: Inhibition rate
  inhibition at 8 µg/mL: 66.3%
